For twelve molecules, ear oedema weight and Reduction results are on record in ChEMBL document CHEMBL1147564, “Synthesis and anti-inflammatory activity of natural and semisynthetic geranyloxycoumarins” (2004).

Type in all cases: functional
The species entered for assay [1] is Mus musculus. The assay can be described thus: Inhibitory activity against mouse uM/cm**2 (control=7.0).
Assay [2] is filed under the species Mus musculus. Nature of the assay: (§1) Percent uM/cm**2. Also on record: concentration or dose not given beside the values.
The species named for assay [3] is Mus musculus. The description is as §1.

Molecules are shown by their SMILES.

`CC(C)=CCC/C(C)=C/COc1ccc2ccc(=O)oc2c1Cl` had an ear oedema weight in the assay listed under Mus musculus [1] of 4.5 mg. Also, the Reduction in the assay filed under Mus musculus [2] came out at 36%.

For `CC(C)=CCC/C(C)=C/COc1ccc2ccc(=O)oc2c1I`, the ear oedema weight in the assay filed under Mus musculus [1] worked out at 5 mg. For the same molecule, the Reduction in the assay listed under Mus musculus [2] worked out at 29%.

`COc1c(OC/C=C(\C)CCC=C(C)C)ccc2ccc(=O)oc12` [COLLININ] yielded an ear oedema weight in the assay filed under Mus musculus [1] of 3.7 mg. In the assay filed under Mus musculus [2], this molecule returned a Reduction of 47%.

`CCCCCOc1c(OC/C=C(\C)CCC=C(C)C)ccc2ccc(=O)oc12` displayed an ear oedema weight in the assay listed under Mus musculus [1] of 6.4 mg. The Reduction in the assay filed under Mus musculus [2] is 9%.

`COc1ccc2c(c1)c(CC(=O)O)c(C)n2C(=O)c1ccc(Cl)cc1` [INDOMETHACIN] displayed a Reduction in the assay filed under Mus musculus [3] of 47%. Besides, the ear oedema weight in the assay filed under Mus musculus [1] turned out to be 3.7 mg.

In the assay listed under Mus musculus [1], `CC(C)=CCC/C(C)=C/COc1ccc2ccc(=O)oc2c1` [AURAPTENE] came in with an ear oedema weight of 3.4 mg. In addition, the Reduction in the assay listed under Mus musculus [2] is listed as 51%.

Turning to `CC(C)=CCC/C(C)=C/COc1ccc2ccc(=O)oc2c1O`, in the assay listed under Mus musculus [1], the ear oedema weight came out at 4.3 mg. In addition, the Reduction in the assay filed under Mus musculus [2] is given as 39%.

Take `CC(C)=CCC/C(C)=C/COc1ccc2ccc(=O)oc2c1OC/C=C(\C)CCC=C(C)C`: in the assay listed under Mus musculus [1], the ear oedema weight is 5.1 mg. The molecule further yielded a Reduction in the assay listed under Mus musculus [2] of 27%.

`CC(C)=CCC/C(C)=C/COc1ccc2ccc(=O)oc2c1C` displayed an ear oedema weight in the assay listed under Mus musculus [1] of 4.8 mg. Moreover, the Reduction in the assay filed under Mus musculus [2] turned out to be 31%.

In the assay filed under Mus musculus [1], `CC(C)=CCC/C(C)=C/COc1ccc2ccc(=O)oc2c1Br` displayed an ear oedema weight of 4 mg. In addition, the Reduction in the assay filed under Mus musculus [2] came out at 43%.

`CC(=O)Oc1c(OC/C=C(\C)CCC=C(C)C)ccc2ccc(=O)oc12` had an ear oedema weight in the assay filed under Mus musculus [1] of 3.4 mg. Further, the Reduction in the assay filed under Mus musculus [2] was found to be 51%.

In the case of `CC(C)=CCC/C(C)=C/COc1ccc2ccc(=O)oc2c1F`, the ear oedema weight in the assay filed under Mus musculus [1] was determined as 5.1 mg. The molecule further yielded a Reduction in the assay filed under Mus musculus [2] of 27%.
